This is an account of results in patent publication US5128362A, “1-aminomethyl-1,2,3,4-tetrahydronaphthalenes” (Abbott Laboratories, priority 1990, dated 1992).

The structures appear in SMILES notation. Where a name gives a salt, the structure may show the parent alone. Read-outs that look alike come from different tables or passages of the source.

In test [1] the test system is alpha 2 receptor. Briefly: Radioligand binding, [3H]rauwolscine, rat cerebral cortices. Particulars: Ki alpha 1/Ki alpha-2. The method, then:
(§1) The compounds were assessed for alpha-adrenergic receptor subtype selectivity by use of radioligand binding techniques as described previously (DeBernardis et. al. J. Med. Chem. 28, 1398 (1985)).

In test [2] the target is T1, alpha 2 receptor (Rattus norvegicus, UniProt P22909).
T1 construct: rat cerebral cortices; from tissue; host or cells: rat cerebral cortices
T1 sequence (P22909 1-465): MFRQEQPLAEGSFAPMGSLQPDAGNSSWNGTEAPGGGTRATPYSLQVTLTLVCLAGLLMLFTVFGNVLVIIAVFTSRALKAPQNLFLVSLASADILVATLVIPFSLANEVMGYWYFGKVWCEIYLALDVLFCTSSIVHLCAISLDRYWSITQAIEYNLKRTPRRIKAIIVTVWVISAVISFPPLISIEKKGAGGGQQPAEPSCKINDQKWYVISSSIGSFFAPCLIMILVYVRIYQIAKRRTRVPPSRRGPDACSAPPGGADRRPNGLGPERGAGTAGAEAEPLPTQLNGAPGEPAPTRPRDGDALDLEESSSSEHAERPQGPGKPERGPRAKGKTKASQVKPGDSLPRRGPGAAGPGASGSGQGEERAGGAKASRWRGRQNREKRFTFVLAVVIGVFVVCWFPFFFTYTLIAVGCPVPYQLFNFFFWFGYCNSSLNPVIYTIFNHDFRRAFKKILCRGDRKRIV
The test is described as above. Conditions: read-out: Ki alpha-2. The method, then:
as §1

A further test deals with T2, alpha 1 receptor (Rattus norvegicus, UniProt P15823).
T2 construct: rat liver homogenates; from tissue; host or cells: rat liver homogenates
T2 sequence (P15823 1-515): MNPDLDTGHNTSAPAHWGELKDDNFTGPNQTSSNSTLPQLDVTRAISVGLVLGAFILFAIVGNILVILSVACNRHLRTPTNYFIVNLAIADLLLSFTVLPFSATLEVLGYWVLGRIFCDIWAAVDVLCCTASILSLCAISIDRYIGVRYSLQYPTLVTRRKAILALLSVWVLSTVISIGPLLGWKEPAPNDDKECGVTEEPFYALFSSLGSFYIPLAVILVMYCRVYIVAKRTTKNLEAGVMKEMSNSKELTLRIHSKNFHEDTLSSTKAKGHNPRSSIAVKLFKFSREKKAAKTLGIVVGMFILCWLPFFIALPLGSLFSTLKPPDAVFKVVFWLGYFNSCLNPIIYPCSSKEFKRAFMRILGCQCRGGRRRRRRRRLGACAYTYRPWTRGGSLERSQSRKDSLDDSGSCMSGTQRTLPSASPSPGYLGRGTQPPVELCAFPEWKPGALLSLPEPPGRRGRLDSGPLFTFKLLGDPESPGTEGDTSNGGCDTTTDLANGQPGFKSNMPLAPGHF
Description: Radioligand binding, [3H]-prazosin, rat liver homogenates. The method, then: as §1

For the next test, the system named is dopamine uptake. Description: Uptake inhibition, tritiated dopamine, rat brain synaptosomes. It counts as biochemical, Sprague-Dawley derived rats. Conditions: 0.1 μM tritiated amine, 37° C., 4 minutes, read-out: Biogenic Amine Uptake Inhibition IC50 Dopamine. An excerpt:
(§2) Sprague-Dawley derived rats of either sex, weighing about 180-250 g, were killed by decapitation. The brains were immediately removed, placed on a glass plate chilled over crushed ice and dissected according to a modification of the method of Glowinski and Iversen (J. Neurochem. 13, 655-669, 1966). First, the rhombencephalon was separated by transverse section and discarded. The remaining tissue was bisected by a midline sagittal cut. The hypothalamus was removed using the anterior and posterior reference points, respectively. The hippocampus was peeled away and discarded and the striata were exposed and removed. Frontal cortical tissue was dissected from remaining brain structures. […]
(§3) Uptake studies were conducted according to the method of Synder and Coyle (J. Pharmacol. Exp. Ther. 165, 78-86, 1969) with minor modifications. Usually a 0.1 ml aliquot of the synaptosomal preparation was incubated in a mixture of 0.75 ml of modified Krebs-Ringer buffer, 0.05 ml of the drug being evaluated for uptake inhibition, and 0.1 ml of a 1 μM tritiated amine (norepinephrine, serotonin or dopamine) solution (final concentration 0.1 μM) for a total volume of 1 ml. […] All samples were cold and dark adapted and counted in a Tri-Carb® (Packard) Model 460 Liquid Scintillation Spectrometer. Corrections were automatically made for quenching by the external standard method and for luminescence. […]

For a further test, the system named is norepinephrine uptake. Description: Uptake inhibition, tritiated norepinephrine, rat brain synaptosomes. It counts as biochemical, Sprague-Dawley derived rats. Particulars: 0.1 μM tritiated amine, 37° C., 4 minutes, read-out: Biogenic Amine Uptake Inhibition IC50 Norephinephrine.
Excerpt: as §2, §3

In the next test the test system is serotonin uptake. Description: Uptake inhibition, tritiated serotonin, rat brain synaptosomes. In kind it is biochemical, Sprague-Dawley derived rats. Conditions: 0.1 μM tritiated amine, 37° C., 4 minutes, read-out: Biogenic Amine Uptake Inhibition IC50 Serotonin.
Excerpt: as §2, §3

Setting [3] is: rat cerebral cortices, [3H]rauwolscine.

By Ki is commonly meant the equilibrium dissociation constant of an inhibitor or competing ligand from its target. Consider `COc1cccc2c1CCCC2CN1CCC(c2cccs2)C1` (centres unmarked) [Example 146, 5-Methoxy-1-(3-(2-thienyl)pyrrolidino-1-methyl) tetralin hydrochloride], for which, in the test with alpha 2 receptor [1], the “alpha-2 - Selectivity Ki alpha 1/Ki alpha-2” value came out at 35. For the same compound, on alpha 2 receptor [2], the Ki turned out to be 4.9 nM.
Turning to `COc1ccc2c(c1)CCCC2CN1CCC(c2ccccc2)C1` (centres unmarked) [Example 121, 6-Methoxy-1-(3-phenylpyrrolidino-1-methyl) tetralin hydrochloride], in the test on alpha 2 receptor [1], the “alpha-2 - Selectivity Ki alpha 1/Ki alpha-2” value amounted to 95. The Ki on alpha 2 receptor [2] turned out to be 1 nM.
For `CN(c1ccc2c(c1)CCCC2CN1CCC(c2ccccc2)C1)S(C)(=O)=O` (centres unmarked) [Example 193, 6-(N-methylmethylsulfonamido)-1-(3-phenylpyrrolidino-1-methyl)tetralin hydrochloride], in that order: 93 and 1.3 nM.
For `CN(CCc1cccc(F)c1)CC1CCCc2c1ccc1c2OCCO1` (centres unmarked) [Example 167, 1-((N-Methylamino)methyl-N-(2-m-fluorophenethyl))-5,6-ethylenedioxy tetralin methanesulfonate], in that order: 85 and 4.2 nM.
Take `COc1ccc2c(c1)CCC2CN1CCC(c2cccs2)C1` (centres unmarked) [Example 151, 5-Methoxy-1-(3-(2-thienyl)pyrrolidino-1-methyl) indane hydrochloride]: the “alpha-2 - Selectivity Ki alpha 1/Ki alpha-2” value in the test with alpha 2 receptor [1] turned out to be 71. For the same compound, the Ki on alpha 2 receptor [2] was 2.5 nM.
As to `CCOc1ccc2c(c1)CCCC2CN(C)CCc1cccc(N)c1` (centres unmarked) [Example 69, 1-((N-Methylamino)methyl-N-(2-(m-aminophenyl)ethyl))-6-ethoxy tetralin dihydrochloride], the “alpha-2 - Selectivity Ki alpha 1/Ki alpha-2” value in the test on alpha 2 receptor [1] is listed as 98. In addition, the Ki at alpha 2 receptor [2] is 13 nM.
With `COc1ccc2c(c1)CCC2CN1CCC(c2ccccc2)C1` (centres unmarked) [Example 152, 5-Methoxy-1-(3-phenylpyrrolidino-1-methyl) indane hydrochloride], the Ki came out at 51 nM on alpha 1 receptor and 4.8 nM on alpha 2 receptor [2] (setting [3]). Besides, the “alpha-2 - Selectivity Ki alpha 1/Ki alpha-2” value in the test with alpha 2 receptor [1] is recorded as 11.
In the case of `Fc1ccc2c(c1)CCCC2CN1CCC(c2ccccc2)C1` (centres unmarked) [Example 148, 6-Fluoro-1-(3-phenylpyrrolidino-1-methyl) tetralin methanesulfonate], in the test on alpha 2 receptor [1], the “alpha-2 - Selectivity Ki alpha 1/Ki alpha-2” value is reported as 19. The Ki at alpha 2 receptor [2] turned out to be 6.5 nM.
As for `COc1ccc2c(c1)CCC2CN1CCC(c2cccc(F)c2)C1` (centres unmarked) [Example 153, 5-Methoxy-1-(3-(m-fluorophenyl)pyrrolidino-1-methyl) indane hydrochloride], in the test on alpha 2 receptor [1], the “alpha-2 - Selectivity Ki alpha 1/Ki alpha-2” value is reported as 7. Besides, the Ki at alpha 2 receptor [2] is 8.6 nM.
Broadly, the IC50 is the concentration needed to halve the response being measured. Take `Fc1cc2c(c3c1C(CN1CCC(c4ccccc4)C1)CCC3)OCO2` (centres unmarked) [Example 160, 8-Fluoro-5,6-methylenedioxy-1-(3-phenylpyrrolidino-1-methyl) tetralin hydrochloride]: the IC50 was determined as 2930 nM in the test with dopamine uptake, 991 nM with norepinephrine uptake and 1840 nM in the test on serotonin uptake.
Take `Nc1ccc2c(c1)CCCC2CN1CCC(c2ccccc2)C1` (centres unmarked) [Example 156, 6-Amino-1-(3-phenylpyrrolidino-1-methyl) tetralin dihydrochloride]: in the test on alpha 2 receptor [1], the “alpha-2 - Selectivity Ki alpha 1/Ki alpha-2” value is on record as 21. In addition, at alpha 2 receptor [2], the Ki turned out to be 6 nM.
The matching figures for `c1ccc(C2CCN(CC3CCCc4c3ccc3c4OCO3)C2)cc1` (centres unmarked) [Example 143a, 5,6-Methylenedioxy-1-(3-phenylpyrrolidino-1-methyl) tetralin methanesulfonate]: 43 and 1.2 nM.
For the compound `COc1ccc(C)c2c1CCCC2CN(C)CCc1cccs1` (centres unmarked) [Example 36, 1-((N-Methylamino)methyl-N-(2-(2-thienyl)ethyl))-5-methoxy-8-methyl tetralin hydrochloride], the “alpha-2 - Selectivity Ki alpha 1/Ki alpha-2” value with alpha 2 receptor [1] is recorded as 95. Further, the Ki on alpha 2 receptor [2] came to 6.9 nM.
The matching figures for `CN(CCc1cccs1)CC1CCCc2c(Cl)cccc21` (centres unmarked) [Example 129, 1-((N-Methylamino)methyl-N-(2-(2-thieny)ethyl))-5-chloro tetralin hydrochloride]: 55 and 3.6 nM.
Take `Fc1ccc2c(c1)CCCC2CN1CCC(c2cccs2)C1` (centres unmarked) [Example 149, 6-Fluoro-1-(3-(2-thienyl)pyrrolidino-1-methyl) tetralin methanesulfonate]: the “alpha-2 - Selectivity Ki alpha 1/Ki alpha-2” value in the test on alpha 2 receptor [1] came to 45. The Ki on alpha 2 receptor [2] (setting [3]) was found to be 4.9 nM.
